In patent US7169787B2, “7-azaindoles, use thereof as phosphodiesterase 4 inhibitors and method for producing the same” (Elbion AG, priority 2000, dated 2007):
Where a name gives a salt, the structure may show the parent alone.

Assays:
PDE 4 = test: Inhibition of phosphodiesterase 4 (enzyme preparation from human PMNL, [3H]-cAMP); format: biochemical; conditions: PDE 4 from human PMNL cytosol, 0.5 μM [3H]-cAMP
Method: The PDE 4 activity is determined in enzyme preparations from human polymorphonuclear […] (PMNL) and the PDE 2, 3 and 5 activity is determined with PDE from human thrombocytes. Human blood was anti-coagulated with citrate. By centrifuging at 700×g for 20 minutes at room temperature, the thrombocyte-rich plasma in the supernatant is separated from the erythrocytes and leukocytes. The thrombocytes are lysed by ultrasound and used in the PDE 3 and PDE 5 assays. For the determination of the PDE 2 activity, the cytosolic thrombocyte fraction is purified on an anionic exchange column by means of NaCl gradients and the PDE 2 peak is obtained for the assay. The PMNLs for the PDE 4 determination are isolated by a subsequent dextran sedimentation, followed by a gradient centrifugation with Ficoll-Paque. After the cells have been washed twice, the erythrocytes, still contained, are lysed within 6 minutes at 4° C. by the addition of 10 mL of hypotonic buffer (155 mM of NH4Cl, 10 mM of NaHCO3, 0.1 mM of EDTA, pH=7.4). The PMNLs, which are still intact, are washed twice with PBS and lysed with ultrasound. The supernatant of a one-hour centrifugation at 4° C. at 48,000×g contains the cytosolic fraction of the PDE 4 and is used for the PDE 4 measurements.
The phosphodiesterase activity is determined using the method described by Thompson et al. with some modifications (Thompson, W. J. and M. M. Appleman, Assay of cyclic nucleotide phosphodiesterase and resolution of multiple molecular forms of the enzyme, Adv. Cycl. Nucl. Res. 1979, 10, 69–92).
The reaction mixtures contain 50 mM of tris hydrochloride (pH 7.4), 5 mM of magnesium chloride, the inhibitors in various concentrations, the corresponding enzyme preparation as well as the further components necessary for determining the individual isoenzymes (see below). The reaction is started by the addition of the substrate, 0.5 μM of [^3H]-cAMP or [^3H]-cGMP (approximately 6000 CPM per test). The final volume is […]. Test substances are mixed as stock solutions in DMSO. The DMSO concentration in the reaction mixture is 1% v/v. The PDE activity is not affected by this concentration of DMSO. After the reaction is started by the addition of substrate, samples are incubated for 30 minutes at 37° C. The reaction is stopped by heating the test tubes for 2 minutes at 110° C. The samples remain for a further 10 minutes in ice. The addition of 30 μL of 5′-nucleotidase (1 mg/mL, from a poisonous snake suspension from Crotalus adamanteus) is followed by a 10-minutes incubation at 37° C. The samples are stopped on ice, in each case 400 μL of a mixture of Dowex, water and ethanol (1+1+1) is added, mixed well and incubated once again for 15 minutes on ice. The reaction vessels are centrifuged for 20 minutes at 3000×g. Aliquots of the supernatant (200 μL) are transferred directly to scintillation vessels. After the addition of 3 mL of scintillator, the samples are measured in the beta counter.
[^3H]-cAMP is used as substrate for the determination of the PDE 4, 3 and 2 activity and [^3H]-cGMP is used as substrate for the determination of the PDE 5 activity. The enzyme activities, which are nonspecific in each case, are determined in the presence of 100 μM of Rolipram for the determination of PDE 4 and in the presence of 100 μM of IBMX for the determination of the PDE 3 and 5 and subtracted from the test values. The incubation formulations of the PDE 3 assays contained 10 μM of Rolipram, in order to inhibit possible contaminations by PDE 4. The PDE 2 is tested with an SPA assay of the Amersham Company. The assay is carried out in the presence of the activator of the PDE 2 (5 μM of cGMP).

[1] = test system: release of TNFα from cells of nasal polyps; test: Inhibition of the release of TNFα from cells of nasal polyps (anti-IgE stimulated, ELISA); format: cell-based; conditions: Homo sapiens; concentration 1.0 μmole/L; anti-IgE stimulated nasal polyp cells
Method: The experimental arrangement corresponds essentially to the method described by Campbell, A. M. and J. Bousquet (Anti-allergic activity of H1-blockers, Int. Arch. Allergy Immunol., 1993, 101, 308–310). Nasal polyps form the starting material (material from patients, who had been subjected to a surgical treatment).
The tissue is washed with RPMI 1640 and subsequently digested with protease (2.0 mg/mL), collagenase (1.5 mg/mL), hyaluronidase (0.75 mg/mL), and DNAse (0.05 mg/mL) for two hours at 37° C. (1 g of tissue and 4 mL of RPMI 1640 with enzymes). The cells obtained, a mixture of epithelial cells, monocytes, macrophages, lymphocytes, fibroblasts and granulocytes, are filtered and washed by being centrifuged repeatedly in culture solution and sensitized passively by the addition of human IgE and the cell suspension is brought to a concentration of 2 million cells/mL in RPMI 1640 (supplemented by antibiotics, 10% fetal calf serum, 2 mM of glutamine and 25 mM of Hepes). This suspension is distributed on six-well cell culture plates (1 ml/well). The cells are pre-incubated for 30 minutes with the test substances in different final concentrations and subsequently stimulated to release TNFα by the addition of anti-IgE (7.2 μg/mL). The maximum release into the culture medium takes place after about 18 hours. During this period, the cells are incubated at 37° C. and 5% carbon dioxide. The culture medium (supernatant) is recovered by centrifuging (five minutes at 4000 rpm) and kept at −70° C. until the cytokin is determined. The TNFα in the supernatant is determined with so-called sandwich ELISAs (basic material Pharmingen), with which cytokin concentrations ranging from 30 to 1000 pg/mL can be determined.
Cells, not stimulated with anti IgE, hardly produce any TNFα; on the other hand, stimulated cells secrete large amounts of TNFα, which can be reduced, for example, by PDE 4 inhibitors as a function of the dose. From the percentage inhibition (TNFα release by the cells, stimulated with anti IgE=100%) of the substances tested at different concentrations, the IC50 (concentration at 50% inhibition) is calculated.

[2] = test system: actively sensitized Brown Norway Rats; test: Inhibition of the late phase eosinophilia 48 hours after inhalative ovalbumin challenge; format: in vivo, rat; conditions: 2 h before allergen challenge, BAL 48 h after challenge
Method: The inhibition of pulmonary eosinophilia infiltration by the inventive substances is tested on male Brown Norway Rats (200–250 g), which had been actively sensitized against ovalbumin (OVA). The rats were sensitized by subcutaneous injections of a suspension of 10 μg OVA together with 20 mg of aluminum hydroxide as adjuvant in 0.5 mL of physiological salt solution per animal on days 1, 14 and 21. In addition, the animals at the same time received Bordetella pertussis vaccine dilution injected 0.25 mL i.p. per animal. On the 28th day of the experiment, the animals are placed individually in open 1 L Plexiglas boxes, which are connected to a head-nose exposure device. The animals are exposed to an aerosol of 1.0% ovalbumin suspension (allergen challenge). The ovalbumin aerosol is produced by a nebulizer (Bird Micronebulizer, Palm Springs Calif., USA), which is operated with compressed air (0.2 MPa). The exposure time is one hour, normal controls being nebulized also for one hour with an aerosol of 0.9% salt solution.
Forty-eight hours after the allergen challenge, there is a massive migration of eosinophilic granulocytes into the lungs of the animals. At this time, the animals are anesthetized with an excess of ethyl urethane (1.5 g/kg of body weight i.p.) and a bronchoalveolar lavage (BAL) with 3×4 mL of Hank's balance solution is carried out. The total cell count and the number of eosinophilic granulocytes of the pooled BAL liquid are subsequently determined with an automatic cell differentiation instrument (Bayer Diagnostics Technicon HIE). For each animal, the eosinophiles (EOS) in the BAL are calculated in millions/animal: EOS/μl×BAL recovery (mL)=EOS/animal.
For each test, 2 control groups were run (nebulization with physiological salt solution and nebulization with OVA solution).
The percentage inhibition of the eosinophilia of the experimental group, treated with substance, was calculated according to the following formula: {((OVAC−SC)−(OVAD−SC))/(OVAC−SC)}×100%=% inhibition (SC=vehicle-treated control group challenged with 0.9% salt solution; OVAC=vehicle-treated control group challenged with 1% ovalbumin suspension; OVAD=substance-treated experimental group challenged with 1% ovalbumin suspension)
The test substances are applied i.p. or orally as a suspension in 10% polyethylene glycol 300 and 0.5% 5-hydroxyethylcellulose for two hours before the allergen challenge. The control groups are treated with the vehicle in accordance with the application form of the test substance.

Row | SMILES | IC50 (PDE 4) [µM] | inhibition at 1 µM [1] [%] | Inhibition of Eosinophilia ([2]; 10 mg/kg i.p.) [%] | Inhibition of Eosinophilia ([2]; 10 mg/kg p.o.) [%] | melting point
1 | COc1ccc(Cn2cc(C(=O)C(=O)Nc3c(Cl)cncc3Cl)c3cccnc32)cc1 [Example 17] | 0.008 | 91 | 75 | 32 | 165 to 167 °C
2 | O=C(Nc1ccncc1)C(=O)c1cn(Cc2ccc(Cl)cc2)c2ncccc12 (as salt: HCl) [Example 15] |  |  |  |  | 280 to 283 °C (dec.)
3 | O=C(Nc1ccncc1)C(=O)c1cn(Cc2ccc(F)cc2)c2ncccc12 (as salt: HCl) [Example 13] |  |  |  |  | 275 to 278 °C (dec.)
4 | O=C(Nc1c(Cl)cncc1Cl)C(=O)c1cn(CC2CC2)c2ncccc12 [Example 25] | 0.004 |  |  |  | 215 to 218 °C
5 | O=C(Nc1c(Cl)cccc1Cl)C(=O)c1cn(Cc2ccc(Cl)cc2)c2ncccc12 [Example 18] | 0.031 |  |  |  | 166 to 168 °C
6 | Cc1[nH]c(=O)[nH]c(=O)c1NC(=O)C(=O)c1cn(Cc2ccc(F)cc2)c2ncccc12 [Example 37] | 0.987 |  |  |  | 297 to 300 °C (dec.)
7 | CC(C)Cn1cc(C(=O)Nc2c(Cl)cncc2Cl)c2cccnc21 [Example 2] | 1.4 |  |  |  | 
8 | C=C(C)Cn1cc(C(=O)C(=O)Nc2c(Cl)cncc2Cl)c2cccnc21 [Example 28] | 0.003 |  |  |  | 114 to 116 °C
9 | O=C(Nc1ccncc1)C(=O)c1cn(Cc2ccc(Cl)cc2)c2ncccc12 [Example 15] | 0.031 |  |  |  | 
10 | O=C(Nc1c(Cl)cncc1Cl)C(=O)c1cn(Cc2ccc(Cl)cc2)c2ncccc12 [Example 16] | 0.002 | 90 | 100 | 70 | 205 to 207 °C
11 | O=C(Nc1c(Cl)cncc1Cl)C(=O)c1cn(Cc2ccc(O)cc2)c2ncccc12 [Example 23] | 0.001 |  |  |  | 140 to 142 °C
12 | O=C(NCc1ccncc1)c1cn(CC2CC2)c2ncccc12 [Example 1, N-(4-Pyridylmethyl)-1-cyclopropylmethyl-7-azaindole-3-carboxylic Acid Amide] | 0.71 |  |  |  | 
13 | O=C(Nc1c(Cl)cncc1Cl)C(=O)c1cn(Cc2cccc(O)c2)c2ncccc12 [Example 24] | 0.003 |  |  |  | 241 to 244 °C
14 | COc1cccc(Cn2cc(C(=O)C(=O)Nc3c(Cl)cncc3Cl)c3cccnc32)c1 [Example 12, N-(3,5-Dichloropyridine-4-yl)-[1-(3-methoxybenzyl)-7-azaindole-3-yl]-glyoxylic Acid Amide] | 0.005 |  |  |  | 165 to 167 °C
15 | CCCCCCn1cc(C(=O)C(=O)Nc2c(Cl)cncc2Cl)c2cccnc21 [Example 26] | 0.021 |  |  |  | 165 to 167 °C
16 | Cc1noc(C)c1Cn1cc(C(=O)C(=O)Nc2c(Cl)cncc2Cl)c2cccnc21 [Example 32] | 0.113 |  |  |  | 196 to 198 °C
17 | O=C(Nc1ccncc1)C(=O)c1cn(Cc2ccc(F)cc2)c2ncccc12 [Example 13] | 0.058 |  |  |  | 
